These results are taken from US11572590B2, “Methods for evaluating tumor cell spheroids using 3D microfluidic cell culture device” (Dana-Farber Cancer Institute, Inc., priority 2017, dated 2023).

The structures appear in SMILES notation. Like-named read-outs stand apart in the source and are kept apart here.

For this experiment, the target named is T1, off-target kinases (Homo sapiens, UniProt Q99683).
T1 sequence (Q99683 1-1374): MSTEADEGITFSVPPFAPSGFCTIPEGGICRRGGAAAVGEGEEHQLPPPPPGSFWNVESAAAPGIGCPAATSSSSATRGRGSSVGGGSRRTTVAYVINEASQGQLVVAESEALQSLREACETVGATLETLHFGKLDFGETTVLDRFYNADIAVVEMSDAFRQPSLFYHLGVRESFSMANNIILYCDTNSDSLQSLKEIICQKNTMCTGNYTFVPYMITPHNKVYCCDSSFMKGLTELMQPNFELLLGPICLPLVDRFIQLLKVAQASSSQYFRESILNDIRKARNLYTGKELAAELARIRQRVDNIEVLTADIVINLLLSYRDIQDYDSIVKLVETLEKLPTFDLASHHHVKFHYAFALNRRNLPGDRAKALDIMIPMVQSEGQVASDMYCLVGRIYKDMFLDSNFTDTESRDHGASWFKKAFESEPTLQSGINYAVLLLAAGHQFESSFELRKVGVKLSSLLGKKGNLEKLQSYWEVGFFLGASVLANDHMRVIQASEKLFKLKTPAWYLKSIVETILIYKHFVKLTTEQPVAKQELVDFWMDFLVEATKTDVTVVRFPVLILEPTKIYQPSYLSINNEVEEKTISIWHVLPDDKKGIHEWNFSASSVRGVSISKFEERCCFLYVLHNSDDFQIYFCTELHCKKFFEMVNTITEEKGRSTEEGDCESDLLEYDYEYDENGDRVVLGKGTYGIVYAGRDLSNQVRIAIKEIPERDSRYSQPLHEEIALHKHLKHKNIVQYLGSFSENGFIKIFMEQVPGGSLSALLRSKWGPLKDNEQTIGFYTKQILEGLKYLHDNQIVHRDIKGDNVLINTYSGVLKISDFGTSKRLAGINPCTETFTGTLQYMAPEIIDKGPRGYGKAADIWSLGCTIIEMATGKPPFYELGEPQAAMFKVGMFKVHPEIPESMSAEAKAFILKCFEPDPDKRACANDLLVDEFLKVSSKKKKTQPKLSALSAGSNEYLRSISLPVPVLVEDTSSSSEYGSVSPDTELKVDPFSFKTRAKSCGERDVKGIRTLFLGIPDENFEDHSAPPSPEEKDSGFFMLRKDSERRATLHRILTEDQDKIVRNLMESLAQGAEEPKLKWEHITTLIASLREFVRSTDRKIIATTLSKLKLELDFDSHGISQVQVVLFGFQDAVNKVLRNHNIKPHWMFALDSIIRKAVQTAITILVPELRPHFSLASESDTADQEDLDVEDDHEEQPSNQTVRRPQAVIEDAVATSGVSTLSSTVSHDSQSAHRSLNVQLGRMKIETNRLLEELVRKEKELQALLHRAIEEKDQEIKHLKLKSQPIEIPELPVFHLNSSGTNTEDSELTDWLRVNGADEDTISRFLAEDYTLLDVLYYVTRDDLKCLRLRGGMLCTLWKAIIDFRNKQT
Kind of experiment: SelectScreen Kinase Profiling, single point inhibition and IC50 for off-target kinases. In kind it is biochemical. The following applies: MAP3K5 (ASK1), LanthaScreen Binding.

Consider `N#Cc1cc(-c2ncnc(Nc3ccc(N4CCN(C5COC5)CC4)cc3)n2)ccc1OC1CCOCC1` [Compound 1, 5-(4-((4-(4-(oxetan-3-yl)piperazin-1-yl)phenyl)amino)-1,3,5-triazin-2-yl)-2-((tetrahydro-2H-pyran-4-yl)oxy)benzonitrile], for which the inhibition was 7% (read-out: % Inhibition 1), 8% (read-out: % Inhibition 2) and 7% (read-out: % Inhibition Avg).
